Source: patent US20110195900A1, “PEPTIDIC PTH RECEPTOR AGONISTS” (FERRING B.V., priority 2008, published 2011)
Non-standard residues stand in square brackets, D forms with d. Residues, ends and D or L forms follow the SMILES beside them. 1Nal = N[C@@H](Cc1cccc2ccccc12)C(=O)O; β3hI = CC[C@H](C)[C@H](N)CC(=O)O; Nle = CCCC[C@H](N)C(=O)O; Aib = CC(C)(N)C(=O)O

Target: T1, human PTH-1 receptor (Homo sapiens, UniProt Q03431)
T1 construct: expressed in transfected cells; host or cells: HEK-293
T1 sequence (Q03431 27-593): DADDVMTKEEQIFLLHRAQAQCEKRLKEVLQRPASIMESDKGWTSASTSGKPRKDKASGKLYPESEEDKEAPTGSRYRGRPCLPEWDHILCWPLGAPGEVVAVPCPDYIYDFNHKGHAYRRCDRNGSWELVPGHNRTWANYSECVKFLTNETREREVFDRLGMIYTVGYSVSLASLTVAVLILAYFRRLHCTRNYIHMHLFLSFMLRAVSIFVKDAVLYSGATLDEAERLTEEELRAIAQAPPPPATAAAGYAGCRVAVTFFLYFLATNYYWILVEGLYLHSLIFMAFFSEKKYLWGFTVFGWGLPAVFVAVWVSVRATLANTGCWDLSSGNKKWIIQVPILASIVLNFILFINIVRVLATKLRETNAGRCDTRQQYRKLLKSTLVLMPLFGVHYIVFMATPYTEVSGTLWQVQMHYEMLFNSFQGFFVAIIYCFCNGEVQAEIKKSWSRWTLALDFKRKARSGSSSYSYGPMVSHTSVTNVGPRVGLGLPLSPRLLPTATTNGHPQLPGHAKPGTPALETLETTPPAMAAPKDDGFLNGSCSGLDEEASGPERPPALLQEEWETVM
Assay: Reporter gene assay (CRE-luciferase) for agonist activity in transiently transfected HEK-293 cells
Type: cell-based
Conditions: for hPTHR-2/hPTHR-1: Table 3, ratio of EC50 values, selectivity for hPTH-1 receptor over hPTH-2 receptor
Method: Agonist activity of compounds on the human PTH-1 receptor was determined in a reporter gene assay by transiently transfecting HEK-293 cells with plasmids encoding human PTH-1 receptor under control of the SV40 promoter and a luciferase reporter gene under control of cAMP responsive elements (CRE). See Himmler et al, J. Recept. Res. 13 (1993) 79-94, for further guidance on this assay. Transfected cells were exposed to serial dilutions of compounds for 4-5 hours followed by lysis of cells, determination of luciferase activity, and determination of compound efficacies and EC50 values through non-linear regression.
PTH (1-34) was used as an internal control in each experiment and compounds were tested in at least three independent experiments. To determine selectivity, compounds were tested in luciferase-based transcriptional reporter gene assays expressing the human PTH-2 receptor.

| SMILES | EC50 | hPTHR-2/hPTHR-1 |
| --- | --- | --- |
| CCCC[C@H](NC(=O)[C@H](CC(C)C)NC(=O)[C@H](CCC(N)=O)NC(=O)[C@@H](NC(=O)[C@H](CCC(=O)O)NC(=O)[C@H](CO)NC(=O)[C@@H](NC(=O)[C@@H](N)CO)C(C)C)[C@@H](C)CC)C(=O)N[C@@H](Cc1c[nH]cn1)C(=O)N[C@@H](CC(N)=O)C(=O)N[C@@H](CC(C)C)C(=O)NCC(=O)N[C@@H](CCCCN)C(=O)N[C@@H](Cc1c[nH]cn1)C(=O)N[C@@H](CC(C)C)C(=O)N[C@@H](CO)C(=O)N[C@@H](CO)C(=O)N[C@H](CC(=O)N[C@@H](CCC(=O)O)C(=O)N[C@@H](CCCNC(=N)N)C(=O)N[C@H](C(=O)N[C@@H](CCC(=O)O)C(=O)N[C@@H](Cc1cccc2ccccc12)C(=O)N[C@@H](CC(C)C)C(=O)N[C@@H](CCCNC(=N)N)C(=O)N[C@@H](CCCCN)C(=O)N[C@@H](CC(C)C)C(=O)N[C@@H](CC(C)C)C(=O)N[C@@H](CCC(N)=O)C(=O)N[C@@H](CC(=O)O)C(=O)N[C@H](C(=O)N[C@@H](Cc1c[nH]cn1)C(=O)N[C@@H](CC(N)=O)C(=O)N[C@@H](Cc1ccccc1)C(N)=O)C(C)C)C(C)C)[C@@H](C)CC [SEQ ID NO: 22, [Nle^8, Ser^16, β-hIle^18,1-Nal^23, Leu^27] hPTH (1-34)-NH2] (H-SVSEIQL[Nle]HNLGKHLSS[β3hI]ERVE[1Nal]LRKLLQDVHNF-NH2) | 0.19 nM | 101 |
| CCCC[C@H](NC(=O)[C@H](CC(C)C)NC(=O)[C@H](CCC(N)=O)NC(=O)[C@@H](NC(=O)[C@H](CCC(=O)O)NC(=O)[C@H](CO)NC(=O)[C@@H](NC(=O)[C@@H](N)CO)C(C)C)[C@@H](C)CC)C(=O)N[C@@H](Cc1c[nH]cn1)C(=O)N[C@@H](CC(N)=O)C(=O)N[C@@H](CC(C)C)C(=O)NCC(=O)N[C@@H](CCCCN)C(=O)N[C@@H](Cc1c[nH]cn1)C(=O)N[C@@H](CC(C)C)C(=O)N[C@@H](CC(N)=O)C(=O)N[C@@H](CO)C(=O)N[C@H](CC(=O)N[C@@H](CCC(=O)O)C(=O)N[C@@H](CCCNC(=N)N)C(=O)N[C@H](C(=O)N[C@@H](CCC(=O)O)C(=O)N[C@@H](Cc1cccc2ccccc12)C(=O)N[C@@H](CC(C)C)C(=O)N[C@@H](CCCNC(=N)N)C(=O)N[C@@H](CCCCN)C(=O)N[C@@H](CC(C)C)C(=O)N[C@@H](CC(C)C)C(=O)N[C@@H](CCC(N)=O)C(=O)N[C@@H](CO)C(=O)N[C@H](C(=O)N[C@@H](Cc1c[nH]cn1)C(=O)N[C@@H](CC(N)=O)C(=O)N[C@@H](Cc1ccccc1)C(N)=O)C(C)C)C(C)C)[C@@H](C)CC [SEQ ID NO: 26, [Nle^8, β-hIle^18,1-Nal^23, Leu^27, Ser^30] hPTH (1-34)-NH2] (H-SVSEIQL[Nle]HNLGKHLNS[β3hI]ERVE[1Nal]LRKLLQSVHNF-NH2) | 0.19 nM | 98 |
| CCCC[C@H](NC(=O)[C@H](CC(C)C)NC(=O)[C@H](CCC(N)=O)NC(=O)[C@@H](NC(=O)[C@H](CCC(=O)O)NC(=O)[C@H](CO)NC(=O)[C@@H](NC(=O)[C@@H](N)CO)C(C)C)[C@@H](C)CC)C(=O)N[C@@H](Cc1c[nH]cn1)C(=O)N[C@@H](CC(N)=O)C(=O)N[C@@H](CC(C)C)C(=O)NCC(=O)N[C@@H](CCCCN)C(=O)N[C@@H](Cc1c[nH]cn1)C(=O)N[C@@H](CC(C)C)C(=O)N[C@@H](CC(N)=O)C(=O)N[C@@H](CO)C(=O)N[C@H](CC(=O)N[C@@H](CCC(=O)O)C(=O)N[C@@H](CCCNC(=N)N)C(=O)N[C@H](C(=O)N[C@@H](CCC(=O)O)C(=O)N[C@@H](Cc1cccc2ccccc12)C(=O)N[C@@H](CC(C)C)C(=O)N[C@@H](CCCNC(=N)N)C(=O)N[C@@H](CCCCN)C(=O)N[C@@H](CC(C)C)C(=O)N[C@@H](CC(C)C)C(=O)N[C@@H](CCC(N)=O)C(=O)N[C@@H](CC(=O)O)C(=O)N[C@H](C(=O)N[C@@H](Cc1c[nH]cn1)C(=O)N[C@@H](CCC(=O)O)C(=O)N[C@@H](Cc1ccccc1)C(N)=O)C(C)C)C(C)C)[C@@H](C)CC [SEQ ID NO: 27, [Nle^8, β-hIle^18,1-Nal^23, Leu^27, Glu^33] hPTH (1-34)-NH2] (H-SVSEIQL[Nle]HNLGKHLNS[β3hI]ERVE[1Nal]LRKLLQDVHEF-NH2; N-terminus assumed) | 0.12 nM | 344 |
| CCCC[C@H](NC(=O)[C@H](CC(C)C)NC(=O)[C@H](CCC(N)=O)NC(=O)[C@@H](NC(=O)[C@H](CCC(=O)O)NC(=O)[C@H](CO)NC(=O)[C@@H](NC(=O)[C@@H](N)CO)C(C)C)[C@@H](C)CC)C(=O)N[C@@H](Cc1c[nH]cn1)C(=O)N[C@@H](CC(N)=O)C(=O)N[C@@H](CC(C)C)C(=O)NCC(=O)N[C@@H](CCCCN)C(=O)N[C@@H](Cc1c[nH]cn1)C(=O)N[C@@H](CC(C)C)C(=O)N[C@@H](CC(N)=O)C(=O)N[C@@H](CO)C(=O)N[C@H](CC(=O)N[C@@H](CCC(=O)O)C(=O)N[C@@H](CCCNC(=N)N)C(=O)N[C@H](C(=O)N[C@@H](CCC(=O)O)C(=O)N[C@@H](Cc1cccc2ccccc12)C(=O)N[C@@H](CC(C)C)C(=O)N[C@@H](CCCNC(=N)N)C(=O)N[C@@H](CCCCN)C(=O)N[C@@H](CC(C)C)C(=O)N[C@@H](CC(C)C)C(=O)N[C@@H](CCC(N)=O)C(=O)N[C@@H](CC(=O)O)C(=O)N[C@H](C(=O)N[C@@H](Cc1c[nH]cn1)C(=O)N[C@@H](CC(N)=O)C(=O)N[C@@H](CCC(=O)O)C(N)=O)C(C)C)C(C)C)[C@@H](C)CC [SEQ ID NO: 29, [Nle^8, β-hIle^18,1-Nal^23, Leu^27, Glu^34] hPTH (1-34)-NH2] (H-SVSEIQL[Nle]HNLGKHLNS[β3hI]ERVE[1Nal]LRKLLQDVHNE-NH2; N-terminus assumed) | 0.12 nM | 474 |
| CCCC[C@H](NC(=O)[C@H](CC(C)C)NC(=O)[C@H](CCC(N)=O)NC(=O)[C@@H](NC(=O)[C@H](CCC(=O)O)NC(=O)[C@H](CO)NC(=O)[C@@H](NC(=O)[C@@H](N)CO)C(C)C)[C@@H](C)CC)C(=O)N[C@@H](Cc1c[nH]cn1)C(=O)N[C@@H](CC(N)=O)C(=O)N[C@@H](CC(C)C)C(=O)NC(C)(C)C(=O)NC(C)(C)C(=O)N[C@@H](Cc1c[nH]cn1)C(=O)N[C@@H](CC(C)C)C(=O)N[C@@H](CC(N)=O)C(=O)N[C@@H](CO)C(=O)N[C@H](CC(=O)N[C@@H](CCC(=O)O)C(=O)N[C@@H](CCCNC(=N)N)C(=O)N[C@H](C(=O)N[C@@H](CCC(=O)O)C(=O)N[C@@H](Cc1cccc2ccccc12)C(=O)N[C@@H](CC(C)C)C(=O)N[C@@H](CCCNC(=N)N)C(=O)N[C@@H](CCCCN)C(=O)N[C@@H](CC(C)C)C(=O)N[C@@H](CC(C)C)C(=O)N[C@@H](CCC(N)=O)C(=O)N[C@@H](CC(=O)O)C(=O)N[C@H](C(=O)N[C@@H](Cc1c[nH]cn1)C(=O)N[C@@H](CC(N)=O)C(=O)N[C@@H](Cc1ccccc1)C(N)=O)C(C)C)C(C)C)[C@@H](C)CC [SEQ ID NO: 31, [Nle^8, Aib^12,13, β-hIle^18,1-Nal^23, Leu^27] hPTH (1-34)-NH2] (H-SVSEIQL[Nle]HNL[Aib][Aib]HLNS[β3hI]ERVE[1Nal]LRKLLQDVHNF-NH2; N-terminus assumed) | 0.25 nM | 138 |
| CCCC[C@H](NC(=O)[C@H](CC(C)C)NC(=O)[C@H](CCC(N)=O)NC(=O)[C@@H](NC(=O)[C@H](CCC(=O)O)NC(=O)[C@H](CO)NC(=O)[C@@H](NC(=O)[C@@H](N)CO)C(C)C)[C@@H](C)CC)C(=O)N[C@@H](Cc1c[nH]cn1)C(=O)N[C@@H](CC(N)=O)C(=O)N[C@@H](CC(C)C)C(=O)NCC(=O)NC(C)(C)C(=O)N[C@@H](Cc1c[nH]cn1)C(=O)N[C@@H](CC(C)C)C(=O)N[C@@H](CC(N)=O)C(=O)N[C@@H](CO)C(=O)N[C@H](CC(=O)N[C@@H](CCC(=O)O)C(=O)N[C@@H](CCCNC(=N)N)C(=O)N[C@H](C(=O)N[C@@H](CCC(=O)O)C(=O)N[C@@H](Cc1cccc2ccccc12)C(=O)N[C@@H](CC(C)C)C(=O)N[C@@H](CCCNC(=N)N)C(=O)N[C@@H](CCCCN)C(=O)N[C@@H](CC(C)C)C(=O)N[C@@H](CC(C)C)C(=O)N[C@@H](CCC(N)=O)C(=O)N[C@@H](CC(=O)O)C(=O)N[C@H](C(=O)N[C@@H](Cc1c[nH]cn1)C(=O)N[C@@H](CC(N)=O)C(=O)N[C@@H](Cc1ccccc1)C(N)=O)C(C)C)C(C)C)[C@@H](C)CC [SEQ ID NO: 33, [Nle^8, Aib^13, β-hIle^18,1-Nal^23, Leu^27] hPTH (1-34)-NH2] (H-SVSEIQL[Nle]HNLG[Aib]HLNS[β3hI]ERVE[1Nal]LRKLLQDVHNF-NH2) | 0.14 nM | 481 |
